Assay results published in patent US20240067651A1 (Biohaven Therapeutics Ltd., priority 2019, published 2024).

Assays:
[1] = Caco-2 Permeability Assay; assay type: in vitro ADME, human; details: human
How it was run: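 Bidirectional transport at 37 °C for 90 min, 10 μM donor concentration, with or without Pgp inhibitor, across 21-day Caco-2 monolayers with TEER >600 […] in HEPES-buffered HBSS, pH 7.4. LC-MS/MS of donor and receiver samples gives Papp, B→A/A→B efflux ratio and mass recovery.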

[2] = Stability in Simulated Gastric Fluid (SGF); assay type: in vitro ADME; set-up: key: % parent compound remaining relative to 0-minute sample
How it was run: (§1)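 LC-MS/MS read-out of intact compound (2 μg/mL final) over 60 minutes at 37° C; gastric medium pH 1.2 with pepsin, intestinal medium pH 6.8 with pancreatin. Half-life from ln(% remaining) against time.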

[3] = Stability in Simulated Intestinal Fluid (SIF); assay type: in vitro ADME; set-up: key: % parent compound remaining relative to 0-minute sample
How it was run: as §1

[4] = Plasma Stability; assay type: in vitro ADME, human
How it was run: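 Parent compound quantified by LC-MS/MS after acetonitrile precipitation, reported as percent of control remaining (triplicate). Incubation: 1 hour, 37° C, fresh human plasma, compound at 1 μM.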

[5] = Caco-2, pH 7.4, Caco-2 monolayer
[6] = simulated gastric fluid, remaining at 1 h
[7] = simulated intestinal fluid, remaining at 1 h

Row | Structure (SMILES) | Papp at 90 min, 10 µM ([1]; Caco-2, pH 7.4) [×10⁻⁶ cm/s] | SGF ([2]; % remaining @ 1 h) [% remaining] | SIF ([3]; % remaining @ 1 h) | human Plasma stability ([4]; % remaining @ 1 h) [% remaining] | Papp at 90 min, 10 µM [1, 5] [×10⁻⁶ cm/s] | SGF [2, 6] [% remaining] | SIF [3, 7] [% remaining] | human Plasma stability ([4]; human plasma, remaining at 1 h) [% remaining] | SIF ([3]; simulated intestinal fluid, bare number, unit or time not given)
1 | CC(C)C[C@H](N)C(=O)OCCCCC(=O)OCn1ccc2c1c(=O)[nH]c(=S)n2CCOC(C)C.O=C(O)C(F)(F)F [Example 345, trifluoroacetic acid 5-oxo-5-({4-oxo-1-[2-(propan-2-yloxy)ethyl]-2-sulfanylidene-1H,2H,3H,4H,5H-pyrrolo[3,2-d]pyrimidin-5-yl}methoxy)pentyl (2S)-2-amino-4-methylpentanoate] | < 0.0662 | 71 | 2% remaining at | 77 |  |  |  |  | 
2 | CC(C)C[C@@H](NC(=O)OC(C)(C)C)C(=O)OCCCCC(=O)OCn1ccc2c1c(=O)[nH]c(=S)n2CCOC(C)C [Example 347, 5-oxo-5-({4-oxo-1-[2-(propan-2-yloxy)ethyl]-2-sulfanylidene-1H,2H,3H,4H,5H-pyrrolo[3,2-d]pyrimidin-5-yl}methoxy)pentyl (2R)-2-{[(tert-butoxy)carbonyl]amino}-4-methylpentanoate] | 1.06 | 98 | 4% remaining | 16 |  |  |  |  | 
3 | CC(C)C[C@@H](N)C(=O)OCCCCC(=O)OCn1ccc2c1c(=O)[nH]c(=S)n2CCOC(C)C.O=C(O)C(F)(F)F [Example 350, trifluoroacetic acid 5-oxo-5-({4-oxo-1-[2-(propan-2-yloxy)ethyl]-2-sulfanylidene-1H, 2H,3H,4H,5H-pyrrolo[3,2-d]pyrimidin-5-yl}methoxy)pentyl (2R)-2-amino-4-methylpentanoate] |  |  |  |  | 0.0782 | 29 | 52 | 44 | 
4 | CSCC[C@H](NC(=O)OC(C)(C)C)C(=O)OCCCCC(=O)OCn1ccc2c1c(=O)[nH]c(=S)n2CCOC(C)C [Example 352, {4-oxo-1-[2-(propan-2-yloxy)ethyl]-2-sulfanylidene-1H,2H,3H,4H,5H-pyrrolo[3,2-d]pyrimidin-5-yl}methyl 5-{[(2S)-2-{[(tert-butoxy)carbonyl]amino}-4-(methylsulfanyl)butanoyl]oxy}pentanoate] |  |  |  |  | 2.03 | 92 | 9 | 9 | 
5 | CSCC[C@H](N)C(=O)OCCCCC(=O)OCn1ccc2c1c(=O)[nH]c(=S)n2CCOC(C)C.O=C(O)C(F)(F)F [Example 353, trifluoroacetic acid {4-oxo-1-[2-(propan-2-yloxy)ethyl]-2-sulfanylidene-1H,2H,3H,4H,5H-pyrrolo[3,2-d]pyrimidin-5-yl}methyl 5-{[(2S)-2-amino-4-(methylsulfanyl)butanoyl]oxy}pentanoate] |  |  |  |  | 0.549 | 33 | 66 | 3 | 
6 | CC(C)OCCn1c(=S)[nH]c(=O)c2c1ccn2COC(=O)CCCOC(=O)[C@H](NC(=O)OC(C)(C)C)C(C)C [Example 355, 4-oxo-4-({4-oxo-1-[2-(propan-2-yloxy)ethyl]-2-sulfanylidene-1H,2H,3H,4H,5H-pyrrolo[3,2-d]pyrimidin-5-yl}methoxy)butyl (2R)-2-{[(tert-butoxy)carbonyl]amino}-3-methylbutanoate] |  |  |  |  | 2.16 | 99 | 100 | 43 | 
7 | CC(C)OCCn1c(=S)[nH]c(=O)c2c1ccn2COC(=O)CCCOC(=O)[C@H](N)C(C)C [Example 356, trifluoroacetic acid 4-oxo-4-({4-oxo-1-[2-(propan-2-yloxy)ethyl]-2-sulfanylidene-1H,2H,3H,4H,5H-pyrrolo[3,2-d]pyrimidin-5-yl}methoxy)butyl (2R)-2-amino-3-methylbutanoate] |  |  |  |  | 11.3 | 99 | 25 | 5 | 
8 | CC(C)OCCn1c(SCOC(=O)CCCOC(=O)[C@H](N)C(C)C)nc(=O)c2c1ccn2COC(=O)CCCOC(=O)[C@H](N)C(C)C.O=C(O)C(F)(F)F.O=C(O)C(F)(F)F [Example 358, bis(trifluoroacetic acid) 4-(((5-(((4-((D-valyl)oxy)butanoyl)oxy)methyl)-1-(2-isopropoxyethyl)-4-oxo-4,5-dihydro-1H-pyrrolo[3,2-d]pyrimidin-2-yl)thio)methoxy)-4-oxobutyl D-valinate] |  |  |  |  | 1.78 | 80 |  | 12 | 48
9 | CC(C)OCCn1c(=S)[nH]c(=O)c2c1ccn2COC(=O)CCCOC(=O)[C@@H](Cc1ccccc1)NC(=O)OC(C)(C)C [Example 361, {4-oxo-1-[2-(propan-2-yloxy)ethyl]-2-sulfanylidene-1H,2H,3H,4H,5H-pyrrolo[3,2-d]pyrimidin-5-yl}methyl 4-{[(2R)-2-{[(tert-butoxy)carbonyl]amino}-3-phenylpropanoyl]oxy}butanoate] |  |  |  |  | < 0.31 | 95 | 9 | 8 | 
10 | CC(C)OCCn1c(=S)[nH]c(=O)c2c1ccn2COC(=O)CCCOC(=O)[C@H](N)Cc1ccccc1.O=C(O)C(F)(F)F [Example 362, trifluoroacetic acid {4-oxo-1-[2-(propan-2-yloxy)ethyl]-2-sulfanylidene-1H,2H,3H,4H,5H-pyrrolo[3,2-d]pyrimidin-5-yl}methyl 4-{[(2R)-2-amino-3-phenylpropanoyl]oxy}butanoate] |  |  |  |  | 5.12 | 90 | 2 | 3 | 
11 | CC(C)OCCn1c(SCOC(=O)CCCOC(=O)[C@@H](Cc2ccccc2)NC(=O)OC(C)(C)C)nc(=O)c2c1ccn2COC(=O)CCCOC(=O)[C@@H](Cc1ccccc1)NC(=O)OC(C)(C)C [Example 363, [(5-{[(4-{[(2R)-2-{[(tert-butoxy)carbonyl]amino}-3-phenylpropanoyl]oxy}butanoyl)oxy]methyl}-4-oxo-1-[2-(propan-2-yloxy)ethyl]-1H,4H,5H-pyrrolo[3,2-d]pyrimidin-2-yl)sulfanyl]methyl 4-{[(2R)-2-{[(tert-butoxy)carbonyl]amino}-3-phenylpropanoyl]oxy}butanoate] |  |  |  |  | 1.63 | 97 | 18 | 42 | 
12 | CC(C)OCCn1c(SCOC(=O)CCCOC(=O)[C@H](N)Cc2ccccc2)nc(=O)c2c1ccn2COC(=O)CCCOC(=O)[C@H](N)Cc1ccccc1.O=C(O)C(F)(F)F.O=C(O)C(F)(F)F [Example 364, bis(trifluoroacetic acid) [(5-{[(4-{[(2R)-2-amino-3-phenylpropanoyl]oxy}butanoyl)oxy]methyl}-4-oxo-1-[2-(propan-2-yloxy)ethyl]-1H,4H,5H-pyrrolo[3,2-d]pyrimidin-2-yl)sulfanyl]methyl 4-{[(2R)-2-amino-3-phenylpropanoyl]oxy}butanoate] |  |  |  |  | 0.277 | 47 | 1 | 31 | 
